#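 Protocol summary: plate cells (96-well), add compound at 5 concentrations, incubate 48 h, interpolate endpoints linearly. GI50: concentration for 50% inhibition of growth. TGI is the concentration that stops growth completely.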
# What was measured:
# Assay in all cases: NCI anticancer screen, dose series, 48 h
# [1] = test system: 786-0 renal
# [2] = test system: A498 renal
# [3] = test system: A549 NSCLC
# [4] = test system: ACHN renal
# [5] = test system: BT-549 breast
# [6] = test system: CAKI-1 renal
# [7] = test system: CCRF-CEM leukemia
# [8] = test system: COLO 205 colon
# [9] = test system: DU-145 prostate
# [10] = test system: EKVX NSCLC
# [11] = test system: HCC-2998 colon
# [12] = test system: HCT-116 colon
# [13] = test system: HCT-15 colon
# [14] = test system: HL-60(TB) leukemia
# [15] = test system: HOP-62 NSCLC
# [16] = test system: HOP-92 NSCLC
# [17] = test system: HS 578T breast
# [18] = test system: HT29 colon
# [19] = test system: K-562 leukemia
# [20] = test system: KM12 colon
# [21] = test system: LOX IMVI melanoma
# [22] = test system: M14 melanoma
# [23] = test system: MALME-3M melanoma
# [24] = test system: MCF7 breast
# [25] = test system: MDA-MB-231 breast
# [26] = test system: MDA-MB-435
# [27] = test system: MOLT-4 leukemia
# [28] = test system: NCI-H226 lung
# [29] = test system: NCI-H23 lung
# [30] = test system: NCI-H460 lung
# [31] = test system: NCI/ADR-RES ovarian
# [32] = test system: OVCAR-3 ovarian
# [33] = test system: OVCAR-4 ovarian
# [34] = test system: OVCAR-5 ovarian
# [35] = test system: OVCAR-8 ovarian
# [36] = test system: PC-3 prostate
# [37] = test system: RPMI-8226 leukemia
# [38] = test system: RXF 393 renal
# [39] = test system: SF-268 CNS
# [40] = test system: SF-295 CNS
# [41] = test system: SF-539 CNS
# [42] = test system: SK-MEL-2 melanoma
# [43] = test system: SK-MEL-28 melanoma
# [44] = test system: SK-MEL-5 melanoma
# [45] = test system: SN12C renal
# [46] = test system: SNB-19 CNS
# [47] = test system: SNB-75 CNS
# [48] = test system: SR leukemia
# [49] = test system: SW-620 colon
# [50] = test system: T-47D breast
# [51] = test system: TK-10 renal
# [52] = test system: U251 CNS
# [53] = test system: UACC-257 melanoma
# [54] = test system: UACC-62 melanoma
# [55] = test system: IGROV1 ovarian
# [56] = test system: SK-OV-3 ovarian
# [57] = test system: UO-31 renal
structure (smiles),measurement,setting,value
COc1ccc2c(CN3CCC(C(=O)O)CC3)cc3cc4c(cc3c2c1)OCO4,GI50,[1],2.41 µM
same,TGI,[1],14.2 µM
same,GI50,[2],1.79 µM
same,TGI,[2],3.33 µM
same,GI50,[3],1.77 µM
same,TGI,[3],4.34 µM
same,GI50,[4],1.41 µM
same,TGI,[4],5.45 µM
same,GI50,[5],4.03 µM
same,TGI,[5],17.6 µM
same,GI50,[6],2.44 µM
same,TGI,[6],7.8 µM
same,GI50,[7],1 µM
same,TGI,[7],6.5 µM
same,GI50,[8],1.55 µM
same,TGI,[8],4.33 µM
same,GI50,[9],3.87 µM
same,TGI,[9],> 100 µM
same,GI50,[10],3.69 µM
same,TGI,[10],20.6 µM
same,GI50,[11],2.72 µM
same,TGI,[11],11 µM
same,GI50,[12],1.4 µM
same,TGI,[12],8.78 µM
same,GI50,[13],2.76 µM
same,TGI,[13],16.7 µM
same,GI50,[14],3.97 µM
same,TGI,[14],15.3 µM
same,GI50,[15],2.71 µM
same,TGI,[15],11.4 µM
same,GI50,[16],1.62 µM
same,TGI,[16],5.34 µM
same,GI50,[17],3.97 µM
same,TGI,[17],25.8 µM
same,GI50,[18],2.33 µM
same,TGI,[18],13.8 µM
same,GI50,[19],2.66 µM
same,TGI,[19],11.3 µM
same,GI50,[20],2.52 µM
same,TGI,[20],10.4 µM
same,GI50,[21],1.9 µM
same,TGI,[21],9.37 µM
same,GI50,[22],2.11 µM
same,TGI,[22],4.94 µM
same,GI50,[23],1.58 µM
same,TGI,[23],3.45 µM
same,GI50,[24],3.1 µM
same,TGI,[24],18.3 µM
same,GI50,[25],3.87 µM
same,TGI,[25],30.7 µM
same,GI50,[26],2.66 µM
same,TGI,[26],7.42 µM
same,GI50,[27],3.05 µM
same,TGI,[27],9.73 µM
same,GI50,[28],2.03 µM
same,TGI,[28],4.64 µM
same,GI50,[29],2.53 µM
same,TGI,[29],8.9 µM
same,GI50,[30],2.97 µM
same,TGI,[30],16.1 µM
same,GI50,[31],2.35 µM
same,TGI,[31],6.99 µM
same,GI50,[32],2.85 µM
same,TGI,[32],9.64 µM
same,GI50,[33],4.15 µM
same,TGI,[33],> 100 µM
same,GI50,[34],2.55 µM
same,TGI,[34],6.87 µM
same,GI50,[35],1.28 µM
same,TGI,[35],4.86 µM
same,GI50,[36],2.26 µM
same,TGI,[36],6.05 µM
same,GI50,[37],1.4 µM
same,TGI,[37],3.59 µM
same,GI50,[38],1.14 µM
same,TGI,[38],3.6 µM
same,GI50,[39],3.67 µM
same,TGI,[39],25.4 µM
same,GI50,[40],2.39 µM
same,TGI,[40],10.1 µM
same,GI50,[41],3.38 µM
same,TGI,[41],14 µM
same,GI50,[42],1.48 µM
same,TGI,[42],3 µM
same,GI50,[43],2.28 µM
same,TGI,[43],6.02 µM
same,GI50,[44],1.62 µM
same,TGI,[44],3.14 µM
same,GI50,[45],1.27 µM
same,TGI,[45],4.08 µM
same,GI50,[46],3.35 µM
same,TGI,[46],22.6 µM
same,GI50,[47],2.41 µM
same,TGI,[47],9.03 µM
same,GI50,[48],0.886 µM
same,TGI,[48],5.78 µM
same,GI50,[49],2.51 µM
same,TGI,[49],39.4 µM
same,GI50,[50],3.62 µM
same,TGI,[50],17.7 µM
same,GI50,[51],3.23 µM
same,TGI,[51],25 µM
same,GI50,[52],2.74 µM
same,TGI,[52],> 100 µM
same,GI50,[53],1.85 µM
same,TGI,[53],3.54 µM
same,GI50,[54],1.59 µM
same,TGI,[54],3.03 µM
Cc1ccc(-c2cc3c(SCC(=O)Nc4cc(C(F)(F)F)ccc4Cl)nccn3n2)cc1,GI50,[1],10.1 µM
same,TGI,[1],87.2 µM
same,GI50,[2],> 100 µM
same,TGI,[2],> 100 µM
same,GI50,[4],6.17 µM
same,TGI,[4],> 100 µM
same,GI50,[5],> 100 µM
same,TGI,[5],> 100 µM
same,GI50,[6],> 100 µM
same,TGI,[6],> 100 µM
same,GI50,[8],> 100 µM
same,TGI,[8],> 100 µM
same,GI50,[9],> 100 µM
same,TGI,[9],> 100 µM
same,GI50,[11],> 100 µM
same,TGI,[11],> 100 µM
same,GI50,[12],5.01 µM
same,TGI,[12],> 100 µM
same,GI50,[13],> 100 µM
same,TGI,[13],> 100 µM
same,GI50,[14],> 100 µM
same,TGI,[14],> 100 µM
same,GI50,[15],58.2 µM
same,TGI,[15],> 100 µM
same,GI50,[16],14.1 µM
same,TGI,[16],> 100 µM
same,GI50,[17],11.7 µM
same,TGI,[17],> 100 µM
same,GI50,[55],> 100 µM
same,TGI,[55],> 100 µM
same,GI50,[19],> 100 µM
same,TGI,[19],> 100 µM
same,GI50,[20],> 100 µM
same,TGI,[20],> 100 µM
same,GI50,[21],> 100 µM
same,TGI,[21],> 100 µM
same,GI50,[22],> 100 µM
same,TGI,[22],> 100 µM
same,GI50,[23],> 100 µM
same,TGI,[23],> 100 µM
same,GI50,[24],> 100 µM
same,TGI,[24],> 100 µM
same,GI50,[25],94.5 µM
same,TGI,[25],> 100 µM
same,GI50,[26],> 100 µM
same,TGI,[26],> 100 µM
same,GI50,[27],> 100 µM
same,TGI,[27],> 100 µM
same,GI50,[28],> 100 µM
same,TGI,[28],> 100 µM
same,GI50,[29],> 100 µM
same,TGI,[29],> 100 µM
same,GI50,[30],81.6 µM
same,TGI,[30],> 100 µM
same,GI50,[31],> 100 µM
same,TGI,[31],> 100 µM
same,GI50,[32],> 100 µM
same,TGI,[32],> 100 µM
same,GI50,[33],2.86 µM
same,TGI,[33],> 100 µM
same,GI50,[34],> 100 µM
same,TGI,[34],> 100 µM
same,GI50,[35],29.8 µM
same,TGI,[35],> 100 µM
same,GI50,[36],> 100 µM
same,TGI,[36],> 100 µM
same,GI50,[37],> 100 µM
same,TGI,[37],> 100 µM
same,GI50,[38],> 100 µM
same,TGI,[38],> 100 µM
same,GI50,[39],79.4 µM
same,TGI,[39],> 100 µM
same,GI50,[40],> 100 µM
same,TGI,[40],> 100 µM
same,GI50,[41],8.5 µM
same,TGI,[41],> 100 µM
same,GI50,[42],> 100 µM
same,TGI,[42],> 100 µM
same,GI50,[43],> 100 µM
same,TGI,[43],> 100 µM
same,GI50,[44],> 100 µM
same,TGI,[44],> 100 µM
same,GI50,[56],69.4 µM
same,TGI,[56],> 100 µM
same,GI50,[45],> 100 µM
same,TGI,[45],> 100 µM
same,GI50,[46],30.9 µM
same,TGI,[46],> 100 µM
same,GI50,[47],23.5 µM
same,TGI,[47],> 100 µM
same,GI50,[48],> 100 µM
same,TGI,[48],> 100 µM
same,GI50,[49],> 100 µM
same,TGI,[49],> 100 µM
same,GI50,[50],23.6 µM
same,TGI,[50],> 100 µM
same,GI50,[51],> 100 µM
same,TGI,[51],> 100 µM
same,GI50,[52],3.4 µM
same,TGI,[52],> 100 µM
same,GI50,[54],> 100 µM
same,TGI,[54],> 100 µM
same,GI50,[57],> 100 µM
same,TGI,[57],> 100 µM
